Assay results published in ChEMBL document CHEMBL3507680, “University of Dundee, Gates Library screen for HepG2 cell viability”.

Assay: Human HepG2 cell viability assay in 384 well format
Format: toxicity, cell-based
Parameters: dose 125 nL, time 70.5 hour; concentration not given beside the values
Settings: HepG2 cells, read-out: Inhibition

| SMILES | cytotoxicity at 70.5 h |
| --- | --- |
| CCOCCCC(=O)NCCC(=O)N1CCN(c2ccccn2)CC1 | -13.4% |
| Cc1noc(C(C)N2CCN(CCC(=O)N3CCCCC3)CC2)n1 (stereo not given) | -8.82% |
| CCc1nc(CC(=O)NCC(Cc2ccc(F)cc2)C(N)=O)cs1 (stereo not given) | 29.6% |
| Cc1cc(C)n(CCCNC(=O)[C@@H](C)NC(=O)OC(C)(C)C)n1 | -14.4% |
| CC(C)Cc1cc(C(=O)NCCc2ccc(S(C)(=O)=O)cc2)[nH]n1 | -7.03% |
| CC(C)(C)c1n[nH]c(C2CN(C(=O)c3csnn3)CCO2)n1 (stereo not given) | 22.6% |
| CC(c1nc(C(C)(C)C)no1)N1CCN(CC(=O)N2CCOCC2)CC1 (stereo not given) | -16.5% |
| CCOCCCNC(=O)c1ccccc1S(C)(=O)=O | -15.5% |
| CCOC(CC)C(=O)NCCC(=O)N1CCN(c2ccccn2)CC1 (stereo not given) | -14.2% |
| COCCOCC(=O)Nc1ccc(Br)cc1F | -11% |
| O=C(NCCc1nnc2n1CCC2)NCC1(c2cccc(F)c2)CC1 | -29.8% |
| Cc1noc(C(C)C)c1C(=O)N1CCOCC1CC(=O)c1ccco1 (stereo not given) | -5.66% |
| CCc1cnc(CN(C(C)=O)C2CCN(CCS(C)(=O)=O)C2)o1 (stereo not given) | 32.1% |
| CCN(CC)C(=O)c1ccc(-c2ccsc2)nc1C | -6.78% |
| O=C(CN1CCCC1Cn1cncn1)Nc1cccnc1 (stereo not given) | -7.61% |
| CCOc1ncccc1NC(=O)c1sccc1C | -7.66% |
| Cc1cc(C(=O)N2CCCC2c2nnc3n2CCCCC3)no1 (stereo not given) | -7.37% |
| CNC(=O)COc1ccc(CNCc2ccc(F)cc2F)cc1 | -3.23% |
| CC1CCN(CCNC(=O)c2cncnc2C(C)C)CC1 | -5.55% |
| Cc1ccc(CNC(=O)Nc2cc(C(F)(F)F)c[nH]c2=O)cn1 | -0.26% |
| Cc1csc(CNC(=O)Nc2cc(C(F)(F)F)c[nH]c2=O)n1 | -5.01% |
| CCCN1CCC(NC(=O)c2ccc(F)cc2I)CC1 | -6.74% |

| SMILES | cytotoxicity at 70.5 h |
| --- | --- |
| Cc1nn(C)c(N2CCOCC2)c1CNC(C)c1ccco1 (stereo not given) | 10.7% |
| O=C(Nc1cccc(CN2CCOC2=O)c1)N1CCOCC1 | -3.32% |
| Cc1nc(-c2ccsc2)ccc1C(=O)O | -4.19% |
| Cc1cnn(CC(C)NCc2nc(-c3ccco3)no2)c1 (stereo not given) | 2.25% |
| Cc1nc(C)n(CC2CCCCN2CC(=O)Nc2cccnc2)n1 (stereo not given) | -0.493% |
| O=C1CCCCN1Cc1cccc(NC(=O)N2CCSCC2)c1 | -6.83% |
| CC(C)(C(=O)NCC(N)=O)c1ccccc1F | -5.2% |
| COc1ccc(CNCCc2cc(F)cc3c2OCOC3)cc1O | 2.79% |
| Cc1nc(C)n(CC2CN(CC(=O)Nc3nccs3)CCO2)n1 (stereo not given) | -3.11% |
| CCOc1ncccc1NC(=O)c1cc(C)c(C)s1 | -7.38% |
| COC(=O)CS(=O)(=O)CCC(=O)N1CCCC1c1ccsc1 (stereo not given) | -2.16% |
| c1ccc(C2CCCN2Cc2nnnn2C2CC2)cc1 (stereo not given) | -2.74% |
| CCc1ncncc1C(=O)NCCN1CCC(C)CC1 | -4.63% |
| Cc1noc(C)c1CN1CCC2(CC1)NC(=O)CC2c1ccncc1 (stereo not given) | -9.41% |
| Cn1cc(-c2nnn3c2COC(CNCC2CCOCC2)C3)cn1 (stereo not given) | -7.48% |
| O=C(c1ccncc1)N1CCN2C[C@H](Oc3cccnc3)C[C@H]2C1 | 2.63% |
| CC(C)NC(=O)c1ccc2nnc(C3CCN(S(C)(=O)=O)C3)n2c1 (stereo not given) | -0.738% |
| Cc1occc1C(=O)N1CCN2C[C@H](Oc3cccnc3)C[C@H]2C1 | 0.855% |
| Cn1nc(CN2CCCCC2)c2c1CN(C(=O)c1ccoc1)C2 | 16.5% |
| O=C1COC2(CCN(c3ccccn3)CC2)CN1Cc1ccccn1 | 17.6% |
| Cc1ccc(C(=O)N2C[C@H](OCC3CCOCC3)[C@H]3OCCC[C@H]32)o1 | 0.644% |
| COC[C@H]1CC[C@H]2[C@H](CCN2S(=O)(=O)c2ccccc2)O1 | 5.05% |

| SMILES | cytotoxicity at 70.5 h |
| --- | --- |
| O=C(c1ccnnc1)N1C[C@H](OCC2CCOCC2)[C@H]2OCCC[C@H]21 | 0.563% |
| CCOC[C@@H]1CC[C@H]2[C@H](CCN2S(=O)(=O)c2ccc(F)cc2)O1 | -6.92% |
| Cc1ccc(CN2CCCn3c(nc(Cn4ccnc4)cc3=O)C2)s1 | 8.11% |
| Cc1ccc(C(=O)N2CCO[C@H]3[C@H](OCC4CCOCC4)CC[C@@H]32)o1 | 11.2% |
| Cc1ccoc1C(=O)N1C[C@@H](OCC2CCOCC2)[C@H]2OCCC[C@H]21 | 8.35% |
| Cc1ccc(N2CCC3(CCN(C(=O)c4ccsc4)CC3)CC2)nn1 | -7.09% |
| Cc1ccc(C(=O)N2C[C@@H](OCc3cccnc3)[C@H]3OCCC[C@H]32)o1 | 3.45% |
| COCC1CN(Cc2ccncc2)Cc2nn(C)cc21 (stereo not given) | 30.7% |
| O=S(=O)(c1ccccc1)N1CCC[C@]2(C[C@@H](OCC3CC3)CO2)C1 | 9.43% |
| Cn1cc(CN2CCC3(CCCCN3S(C)(=O)=O)CC2)cn1 | -11.7% |
| Cc1nn(C)c2nc(N3CCC(C(O)c4nccn4C)CC3)sc12 (stereo not given) | -11.6% |
| O=C(O)C(c1ccc2c(c1)OCO2)N1CCC(O)(c2cccnc2)CC1 (stereo not given) | 0.616% |
| O=C(c1cccc(C2CCNC2)c1)N1CCC(c2ncc[nH]2)CC1 (stereo not given) | -17% |
| Cc1cc(C)c(-n2cc(CCO)cn2)cc1C | 22.1% |
| CCN1Cc2nc(OC)c(CNC(=O)C3CCCN(C)C3)cc2C1=O (stereo not given) | -5.45% |
| CSCCN1CCN(c2nc(N)ncc2C)CC1 | 21.4% |
| CN(C)Cc1ccccc1CN(C)c1ncnc2[nH]ccc12 | -9.22% |
| NC(=O)Cn1ccnc1C1CCCN(Cc2nc3ccccc3s2)C1 (stereo not given) | -7.02% |
| CCC(=O)Nc1ccc(OCC(=O)N(C)C(C)c2ccon2)cc1 (stereo not given) | -18.6% |
| CCn1ccnc1C1CCN(C(=O)Nc2ccc(OC)cc2)CC1 | 29.5% |
| Cc1nc(NCc2coc(-c3ccccc3)n2)cc(C2CCNCC2)n1 | -2.73% |
| CCN1CC2(CCN(CCOc3ccc(F)cc3)CC2)CC1=O | 12.8% |

| SMILES | cytotoxicity at 70.5 h |
| --- | --- |
| COCCN(Cc1cnn(C)c1)C(=O)C1CCCN(C2CCOCC2)C1 (stereo not given) | -12.6% |
| CCc1ncc(C(=O)N2CCCN(C3CCCCC3)CC2)cn1 | 10.7% |
| CC(C)c1noc(C2CCCN2S(=O)(=O)Cc2ccc(F)cc2)n1 (stereo not given) | 0.0647% |
| CN(Cc1ccn[nH]1)C(=O)CCC(=O)NC1CCCC1 | -9.97% |
| Cc1nc(C2CCNCC2)cc(N2CCOc3ccccc3C2)n1 | -4.26% |
| CCCn1cc(C(=O)N2CCCC(c3nccn3CCOC)C2)c(C)n1 (stereo not given) | 1.39% |
| NC(=O)COc1ccc(CNCc2ccc(F)c(F)c2)cc1 | 0.155% |
| Fc1cccnc1N1CCOCC2(CCCN(c3nncs3)C2)C1 (stereo not given) | -9.83% |
| COCC1CN(Cc2ccoc2)Cc2nnn(C)c21 (stereo not given) | -13.7% |
| O=C(NC[C@]12COC[C@H]1CN(Cc1cccs1)C2)c1ccsc1 | -9.66% |
| CN(C)C[C@]12COC[C@H]1CN(C(=O)CCc1ccccc1)C2 | -11.8% |
| Cc1ccc(C(=O)N2CCC3(CC2)CCN(Cc2ccccn2)C3=O)o1 | 26.4% |
| NC(=O)N1CCC2(CCN(Cc3ccccn3)C2=O)C1 (stereo not given) | -0.213% |
| Cc1ccc(C(=O)N2CCc3c(CN4CCCC4)nn(C)c3C2)cc1C | -2.24% |
| c1coc(CN2CCCn3c(nnc3Cn3cccn3)C2)c1 | 3.11% |
| Cc1ccc(C(=O)N2Cc3c(CN4CCCCC4)nn(C)c3C2)cc1F | 36.2% |
| Cc1ccc(C(=O)N2C[C@@H](OCc3cccnc3)[C@H]3OCCC[C@@H]32)o1 | 10.6% |
| c1cnc(N2CCC3(CCN(CC4CCOC4)CC3)C2)nc1 (stereo not given) | -1.96% |
| O=C(CC1CC2(CCN(CC3CC3)CC2)c2ccccc21)NC1CCC1 (stereo not given) | -2.68% |
| O=C(C1=CCCC1)N1CCC2(CC1)CC(Oc1cccnc1)CO2 (stereo not given) | -0.424% |
| Cc1oncc1C(=O)NCc1cc(=O)n2c(n1)CN(CC(C)C)CCC2 | 22.7% |
| O=C(c1cnccn1)N1CCCC2(CCN(c3ccccn3)C2)C1 (stereo not given) | 19.3% |

| SMILES | cytotoxicity at 70.5 h |
| --- | --- |
| O=C(c1cc[nH]n1)N1CCC2(CC1)CC(Oc1cccnc1)CO2 (stereo not given) | 8.68% |
| CCN1CCCn2c(nc(CNC(=O)c3cnoc3C)cc2=O)C1 | 5.12% |
| Cc1ccc(N2CCC3(CCN(C(=O)N(C)C)CC3)CC2)nn1 | 11.4% |
| Cc1noc(C)c1CN1CCO[C@H]2CN(C(=O)N3CCCC3)C[C@H]21 | 0.539% |
| c1cnc(N2CCC3(CCCN(CC4CC4)C3)CC2)nc1 | -6.6% |
| CCS(=O)(=O)N1CC[C@H]2CO[C@H](CN(C)C)[C@H]2C1 | 9.44% |
| O=C(NCc1ccco1)[C@@H]1CCO[C@@H]2CCN(c3ncccn3)C[C@@H]21 | 9.24% |
| Cn1cc(CN2CCCC3(CCCCN3S(C)(=O)=O)C2)cn1 (stereo not given) | -9.02% |
| O=C(NCc1ccco1)[C@@H]1CCO[C@@H]2CCN(c3ncccn3)C[C@H]21 | -3.72% |
| CN1CC(=O)N(c2ccsc2)CC12CCN(C(=O)Nc1ccccc1)C2 (stereo not given) | -4.43% |
| O=C(Nc1cccnc1)[C@H]1C[C@H]2OCC[C@H]2N(Cc2ccc(F)cc2)C1 | -10% |
| Cc1cccc(CN2C[C@@H]3COC[C@]3(CNC(=O)c3ccccc3)C2)n1 | -12.2% |
| Cc1cccc(CN2C[C@@H]3COC[C@]3(CNC(=O)c3cccn3C)C2)n1 | 19.6% |
| Cn1cc(CN2CCC3(CC2)NC(=O)CC3c2ccncc2)cn1 (stereo not given) | 12.2% |
| Cc1cncc(C(=O)N2C[C@H]3CCC[C@@]3(COc3ccccn3)C2)c1 | 7.93% |
| COc1cc(N2CCO[C@H]3[C@@H](Oc4cccnc4)CC[C@@H]32)ncn1 | 26.1% |
| c1cnn(Cc2nnc3n2CCCN(Cc2ccsc2)C3)c1 | 4.58% |
| Cc1ccc(O[C@@H]2C[C@H]3CN(C(=O)c4cccnc4)CCN3C2)cc1 | 9.15% |
| O=C(CCc1cccnc1)N1CCC2(CCN(CC3CCCC3)C2)C1 (stereo not given) | 23.3% |
| Cc1cc(CN2CCO[C@H]3[C@H](OCc4csc(C)n4)CC[C@@H]32)no1 | 2.95% |
| CN1CC(=O)N(c2cccc(F)c2)CC12CCN(CC1CC1)C2 (stereo not given) | -3.68% |
| CN1CC(=O)N(c2ccccc2)CC12CCN(CCO)C2 (stereo not given) | 6.4% |
